Results as given in BindingDB's records for patent US20250074919 (Accro Bioscience (HK), 2025).

Molecular target: T1, Interleukin-1 receptor-associated kinase 4 (Homo sapiens, UniProt Q9NWZ3)
T1 sequence (Q9NWZ3 whole entry): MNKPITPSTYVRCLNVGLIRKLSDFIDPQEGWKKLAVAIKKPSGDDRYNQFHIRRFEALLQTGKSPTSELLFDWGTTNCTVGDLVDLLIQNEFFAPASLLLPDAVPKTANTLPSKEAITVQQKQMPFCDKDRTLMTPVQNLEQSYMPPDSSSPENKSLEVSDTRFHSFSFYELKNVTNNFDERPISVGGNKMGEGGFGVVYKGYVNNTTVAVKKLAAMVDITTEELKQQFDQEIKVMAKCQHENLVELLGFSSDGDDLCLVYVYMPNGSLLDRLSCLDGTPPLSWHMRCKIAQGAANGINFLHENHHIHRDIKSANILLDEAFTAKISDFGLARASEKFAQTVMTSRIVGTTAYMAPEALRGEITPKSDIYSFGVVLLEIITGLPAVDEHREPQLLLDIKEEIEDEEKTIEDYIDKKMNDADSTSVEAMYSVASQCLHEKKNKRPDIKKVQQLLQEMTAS
Experiment: Screening Assay Against IRAK4 with ATP
Method: Then prepare compounds for testing: Dilute the compound to 50× of the final desired highest inhibitor concentration in reaction by 100% DMSO. […] Transfer 10 μL of the compound from the source plate to a new 96-well plate (intermediate plate) and add 90 μL of Ix kinase buffer. Shake the mixture on the intermediate plate for 10 min. Transfer 5 μL of each well from the 96-well intermediate plate to a 384-well plate in duplicates. Add 10 μL of 2.5× enzyme solution to each well of the 384-well assay plate and incubate at room temperature for 10 min. Add 10 μL, of 2.5×FAM-labeled peptide and ATP solution and incubate at 28° C. for a period of time.

IC50: 45 nM
SMILES: Cn1cc(-c2cccc(NC(=O)c3cc4oc(N5CCOCC5)nc4nc3N3CCOCC3)n2)cn1 [US20250074919, Example A2]
